Reference: paper PMC9063844, “Synergic action of an inserted carbohydrate-binding module in a glycoside hydrolase family 5 endoglucanase” (Acta Crystallographica. Section D, Structural Biology, 2022)

How the values were obtained:
ΔCBM [1] = molecular target: T1, ΔCBM (Meiothermus taiwanensis, UniProt A0A399DY85, DEL251-380); assay: X-ray crystal structure (crystal soaked with cellopentaose); assay type: binding; conditions: 1.53 Å; between Trp43 and Trp224; glucose from cellopentaose cleavage
T1 construct: gene celH; CBM-deleted MtGlu5, residues 1-235 joined to 366-455 (catalytic domain only); pET-21, C-terminal His6; E. coli BL21(DE3)

MtGlu5 [2] = molecular target: T2, MtGlu5 (Meiothermus taiwanensis, UniProt A0A399DY85); assay: X-ray crystal structure (co-crystallised with CMC); assay type: binding; conditions: 2.99 Å; glucose from CMC hydrolysis, stacked between Trp43 and Trp224 in the catalytic pocket (-2 or -3 subsite)
T2 construct: gene celH; residues 15-470, signal peptide removed, catalytic domain with inserted CBM29-like domain (236-365); pET-21, C-terminal His6; E. coli BL21(DE3)

MtGlu5 [3] = molecular target: T2, MtGlu5; assay: hydrolysis, specific activity (reducing sugar, DNS); assay type: biochemical; conditions: optimum pH 5.0, 60 °C
ΔCBM [4] = molecular target: T1, ΔCBM; assay: turnover in the soaked crystal (glucose found instead of cellopentaose); assay type: binding; conditions: crystal soak, 10 mM cellopentaose
ΔCBM [5] = molecular target: T1, ΔCBM; assay: X-ray crystal structure (crystal soaked with […] cellobiose); assay type: binding; conditions: 1.53 Å; between Trp43 and Trp224

T1 sequence (A0A399DY85 entry or part of it DEL251-380): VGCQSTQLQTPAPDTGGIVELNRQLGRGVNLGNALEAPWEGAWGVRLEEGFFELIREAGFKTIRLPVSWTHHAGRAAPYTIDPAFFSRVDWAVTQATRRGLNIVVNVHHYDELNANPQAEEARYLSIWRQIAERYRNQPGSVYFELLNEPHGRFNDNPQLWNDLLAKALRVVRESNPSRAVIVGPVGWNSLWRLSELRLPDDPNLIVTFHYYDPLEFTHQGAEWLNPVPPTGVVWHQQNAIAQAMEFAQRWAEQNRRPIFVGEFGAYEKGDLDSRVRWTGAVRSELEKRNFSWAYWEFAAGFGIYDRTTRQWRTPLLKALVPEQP
T2 sequence (A0A399DY85 entry or part of it): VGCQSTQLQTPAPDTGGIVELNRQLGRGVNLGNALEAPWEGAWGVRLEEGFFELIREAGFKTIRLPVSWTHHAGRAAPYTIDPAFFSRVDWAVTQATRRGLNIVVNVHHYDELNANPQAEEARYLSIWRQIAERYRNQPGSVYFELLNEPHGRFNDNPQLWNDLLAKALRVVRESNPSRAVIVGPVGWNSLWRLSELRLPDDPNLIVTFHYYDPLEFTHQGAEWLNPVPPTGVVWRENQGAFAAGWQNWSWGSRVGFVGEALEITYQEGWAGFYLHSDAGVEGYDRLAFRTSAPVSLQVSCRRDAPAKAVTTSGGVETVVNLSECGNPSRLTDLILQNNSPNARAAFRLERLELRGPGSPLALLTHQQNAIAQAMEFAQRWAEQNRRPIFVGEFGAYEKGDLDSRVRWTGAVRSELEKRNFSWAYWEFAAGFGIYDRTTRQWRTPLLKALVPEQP

SMILES: OC[C@H]1OC(O)[C@H](O)[C@@H](O)[C@@H]1O (some centres unmarked) [glucose]
- X-ray crystal structure (crystal soaked with cellopentaose) (ΔCBM [1]): ΔCBM crystals in complex with glucose and cellobiose were obtained by soaking with cellopentaose and cellobiose
- X-ray crystal structure (co-crystallised with CMC) (MtGlu5 [2]): Bound glucose was observed in the MtGlu5 crystal

SMILES: OC[C@H]1O[C@@H](O[C@H]2[C@H](O)[C@@H](O)[C@H](O[C@H]3[C@H](O)[C@@H](O)[C@H](O[C@H]4[C@H](O)[C@@H](O)[C@H](O[C@H]5[C@H](O)[C@@H](O)C(O)O[C@@H]5CO)O[C@@H]4CO)O[C@@H]3CO)O[C@@H]2CO)[C@H](O)[C@@H](O)[C@@H]1O (some centres unmarked) [cellopentaose]
- hydrolysis, specific activity (reducing sugar, DNS) (MtGlu5 [3]): specific activities of MtGlu5 towards CMC, β-glucan (barley) and cellopentaose
- turnover in the soaked crystal (glucose found instead of cellopentaose) (ΔCBM [4]): presence of bound glucose rather than cellopentaose in the former crystal

SMILES: OC[C@H]1O[C@@H](O[C@H]2[C@H](O)[C@@H](O)C(O)O[C@@H]2CO)[C@H](O)[C@@H](O)[C@@H]1O (some centres unmarked) [cellobiose]
- X-ray crystal structure (crystal soaked with 10 mM cellobiose) (ΔCBM [5]): ΔCBM crystals in complex with glucose and cellobiose were obtained by soaking with cellopentaose and cellobiose
